Test results taken from PubChem BioAssay AID248 (DTP/NCI, 2004).
Values joined by “and” are separate entries in the source; they are usually repeats but may differ in a detail not shown here. Equal entries are not always repeated. Toxic doses and inconclusive results are not listed. Rule as the data show it: active = T/C of 150% or more; inactive = T/C below 125%.

Tested on: L1210 leukemia ip in BDF1 mice, survival T/C
Assay: NCI In Vivo Anticancer Drug Screen. Data for tumor model L1210 Leukemia (intraperitoneal) in B6D2F1 (BDF1) mice
Conditions: endpoint: mean survival time, higher = longer survival
How it was run: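 Tumor cells were implanted, animals were treated, and survival was followed. The result divides the treated measurement by the vehicle-control measurement.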

[1] = dose: 100.0 mg/kg/injection, schedule: Q04DX003 (ip), vehicle: water
[2] = dose: 200.0 mg/kg/injection, schedule: Q04DX003 (ip), vehicle: water
[3] = dose: 400.0 mg/kg/injection, schedule: Q04DX003 (ip), vehicle: water
[4] = dose: 200.0 mg/kg/injection, schedule: Q04DX002 (ip), vehicle: Klucel (hydroxypropylcellulose) (HPC)
[5] = dose: 400.0 mg/kg/injection, schedule: Q04DX002 (ip), vehicle: Klucel (hydroxypropylcellulose) (HPC)
[6] = dose: 100.0 mg/kg/injection, schedule: Q04DX003 (ip), vehicle: saline
[7] = dose: 100.0 mg/kg/injection, schedule: Q04DX003 (ip), vehicle: Klucel (hydroxypropylcellulose) (HPC)
[8] = dose: 200.0 mg/kg/injection, schedule: Q04DX003 (ip), vehicle: Klucel (hydroxypropylcellulose) (HPC)
[9] = dose: 400.0 mg/kg/injection, schedule: Q04DX003 (ip), vehicle: Klucel (hydroxypropylcellulose) (HPC)
[10] = dose: 100.0 mg/kg/injection, schedule: Q01DX009 (ip), vehicle: saline with Tween-80
[11] = dose: 200.0 mg/kg/injection, schedule: Q01DX009 (ip), vehicle: saline with Tween-80
[12] = dose: 400.0 mg/kg/injection, schedule: Q01DX009 (ip), vehicle: saline with Tween-80
[13] = dose: 100.0 mg/kg/injection, schedule: Q01DX009 (ip), vehicle: Klucel (hydroxypropylcellulose) (HPC)
[14] = dose: 200.0 mg/kg/injection, schedule: Q01DX009 (ip), vehicle: Klucel (hydroxypropylcellulose) (HPC)
[15] = dose: 100.0 mg/kg/injection, schedule: Q01DX001 (ip), vehicle: Klucel (hydroxypropylcellulose) (HPC)
[16] = dose: 200.0 mg/kg/injection, schedule: Q01DX001 (ip), vehicle: Klucel (hydroxypropylcellulose) (HPC)
[17] = dose: 400.0 mg/kg/injection, schedule: Q01DX001 (ip), vehicle: Klucel (hydroxypropylcellulose) (HPC)

Measured: T/C

O=C(O)CNCc1cccnc1
inactive: dose: 100.0 mg/kg/injection, schedule: Q01DX005 (ip), vehicle: water 94 % of control | [1] 97 % of control | dose: 200.0 mg/kg/injection, schedule: Q01DX005 (ip), vehicle: water 100 % of control | [2] 97 % of control | dose: 400.0 mg/kg/injection, schedule: Q01DX005 (ip), vehicle: water 96 % of control | [3] 104 % of control

O=C(Nc1ccccc1-c1ccc([N+](=O)[O-])cc1)c1ccc(Cl)c(Cl)c1
inactive: [1] 93 % of control | [2] 93 % of control | [3] 93 % of control

O=c1c2cnc3c4cccnc4ccc3c2[nH]n1-c1ccccc1
inactive: dose: 100.0 mg/kg/injection, schedule: Q04DX002 (ip), vehicle: Klucel (hydroxypropylcellulose) (HPC) 105 % of control | [4] 109 % of control | [5] 98 % of control

Nc1ccc2cc(O)ccc2c1
inactive: dose: 50.0 mg/kg/injection, schedule: Q01DX009 (ip), vehicle: saline with Tween-80 94 % of control

CCN(CC)CCCNc1cc(C)c(C)cc1[N+](=O)[O-]
inactive: [6] 100 % of control

CC(C)CCC(O)c1c[nH]c(=O)[nH]c1=O (stereo not drawn)
inactive: [7] 105 % of control | [8] 105 % of control | [9] 94 % of control

Cc1cc(N(CCCOS(C)(=O)=O)CCCOS(C)(=O)=O)ccc1C=Nc1ccc(-c2csc(COc3ccc(Br)cc3Br)n2)cc1
inactive: [10] 88 % of control | [11] 91 % of control | [12] 96 % of control

CCC(C=NCCBr)(CCC(=O)OC)CCC(=O)OC
inactive: dose: 100.0 mg/kg/injection, schedule: Q04DX002 (ip), vehicle: saline 102 % of control | dose: 200.0 mg/kg/injection, schedule: Q04DX002 (ip), vehicle: saline 102 % of control | dose: 400.0 mg/kg/injection, schedule: Q04DX002 (ip), vehicle: saline 112 % of control

CCCCCC(=O)N(CCCC)CCCC
inactive: dose: 100.0 mg/kg/injection, schedule: Q01DX001 (ip), vehicle: carboxymethylcellulose (CMC) 103 % of control | dose: 100.0 mg/kg/injection, schedule: Q01DX009 (ip), vehicle: carboxymethylcellulose (CMC) 97 % of control and 98 % of control | dose: 100.0 mg/kg/injection, schedule: Q04DX002 (ip), vehicle: carboxymethylcellulose (CMC) 102 % of control and 103 % of control | dose: 100.0 mg/kg/injection, schedule: Q04DX003 (ip), vehicle: carboxymethylcellulose (CMC) 98 % of control | dose: 200.0 mg/kg/injection, schedule: Q01DX001 (ip), vehicle: carboxymethylcellulose (CMC) 110 % of control | dose: 200.0 mg/kg/injection, schedule: Q01DX009 (ip), vehicle: carboxymethylcellulose (CMC) 94 % of control and 103 % of control | dose: 200.0 mg/kg/injection, schedule: Q04DX002 (ip), vehicle: carboxymethylcellulose (CMC) 97 % of control and 105 % of control | dose: 200.0 mg/kg/injection, schedule: Q04DX003 (ip), vehicle: carboxymethylcellulose (CMC) 97 % of control | dose: 400.0 mg/kg/injection, schedule: Q01DX001 (ip), vehicle: carboxymethylcellulose (CMC) 106 % of control | dose: 400.0 mg/kg/injection, schedule: Q01DX009 (ip), vehicle: carboxymethylcellulose (CMC) 98 % of control | dose: 400.0 mg/kg/injection, schedule: Q04DX002 (ip), vehicle: carboxymethylcellulose (CMC) 97 % of control and 109 % of control | dose: 400.0 mg/kg/injection, schedule: Q04DX003 (ip), vehicle: carboxymethylcellulose (CMC) 97 % of control

O=[N+]([O-])c1cc([N+](=O)[O-])c(Br)cc1F
inactive: dose: 2.5 mg/kg/injection, schedule: Q01DX009 (ip), vehicle: Klucel (hydroxypropylcellulose) (HPC) 92 % of control | dose: 5.0 mg/kg/injection, schedule: Q01DX009 (ip), vehicle: Klucel (hydroxypropylcellulose) (HPC) 99 % of control

CC(C)(c1cc(Br)sc1Br)c1cc(Br)sc1Br
inactive: dose: 50.0 mg/kg/injection, schedule: Q01DX009 (ip), vehicle: Klucel (hydroxypropylcellulose) (HPC) 95 % of control | [13] 98 % of control | dose: 100.0 mg/kg/injection, schedule: Q04DX003 (ip), vehicle: acetone 106 % of control | [14] 101 % of control | dose: 200.0 mg/kg/injection, schedule: Q04DX003 (ip), vehicle: acetone 117 % of control | dose: 400.0 mg/kg/injection, schedule: Q04DX003 (ip), vehicle: acetone 104 % of control

COC1CCC2(C)C(=CCC3C2CCC2(C)C(C(C)CCCC(C)C)CCC32)C1 (stereo not drawn)
inactive: [15] 97 % of control | [16] 94 % of control | [17] 94 % of control

O=C(Nc1ccccc1)Nc1ccc(C(=O)c2ccccc2)cc1
inactive: dose: 20.0 mg/kg/injection, schedule: Q01DX005 (ip), vehicle: saline with Tween-80 100 % of control | dose: 40.0 mg/kg/injection, schedule: Q01DX005 (ip), vehicle: saline with Tween-80 89 % of control | dose: 80.0 mg/kg/injection, schedule: Q01DX005 (ip), vehicle: saline with Tween-80 97 % of control | dose: 160.0 mg/kg/injection, schedule: Q01DX005 (ip), vehicle: saline with Tween-80 90 % of control | dose: 320.0 mg/kg/injection, schedule: Q01DX005 (ip), vehicle: saline with Tween-80 95 % of control

O=c1[nH]nc(-c2ccc(Cl)c(Cl)c2)s1
inactive: dose: 75.0 mg/kg/injection, schedule: Q01DX001 (ip), vehicle: saline 95 % of control | dose: 75.0 mg/kg/injection, schedule: Q04DX003 (ip), vehicle: saline 95 % of control | dose: 150.0 mg/kg/injection, schedule: Q01DX001 (ip), vehicle: saline 92 % of control | dose: 150.0 mg/kg/injection, schedule: Q04DX003 (ip), vehicle: saline 95 % of control | dose: 300.0 mg/kg/injection, schedule: Q01DX001 (ip), vehicle: saline 92 % of control | dose: 300.0 mg/kg/injection, schedule: Q04DX003 (ip), vehicle: saline 96 % of control

CCCCNC(=O)NS(=O)(=O)c1ccc(CCl)cc1
inactive: dose: 50.0 mg/kg/injection, schedule: Q04DX003 (ip), vehicle: Klucel (hydroxypropylcellulose) (HPC) 98 % of control | [7] 102 % of control | [8] 100 % of control

CC(=O)Nc1ccc2c(c1)C(=O)c1ccccc1-2
inactive: [6] 96 % of control | dose: 200.0 mg/kg/injection, schedule: Q04DX003 (ip), vehicle: saline 100 % of control | dose: 400.0 mg/kg/injection, schedule: Q04DX003 (ip), vehicle: saline 94 % of control

Nc1nc(N)c2cc(S(=O)(=O)c3ccc4ccccc4c3)ccc2n1
inactive: [13] 91 % of control | [7] 98 % of control | [14] 94 % of control | [8] 96 % of control | [9] 98 % of control

CCOC(=O)c1cnc(SC)nc1Nc1cccc(OC)c1
inactive: [7] 108 % of control | [8] 110 % of control | [9] 101 % of control

Cc1ccc(NC(=O)OCCSC(=O)COc2ccc(Cl)cc2Cl)cc1
inactive: [10] 93 % of control | [11] 98 % of control | [12] 104 % of control

O=C1c2ccccc2C(=O)c2c1cccc2N1CCOCC1
inactive: [4] 98 % of control | [5] 112 % of control

NC(N)=N/N=C/c1cccnc1
inactive: dose: 15.0 mg/kg/injection, schedule: Q01DX Z (oral), vehicle: saline 97 % of control | dose: 30.0 mg/kg/injection, schedule: Q01DX Z (oral), vehicle: saline 97 % of control | dose: 60.0 mg/kg/injection, schedule: Q01DX Z (oral), vehicle: saline 97 % of control and 100 % of control | dose: 120.0 mg/kg/injection, schedule: Q01DX Z (oral), vehicle: saline 96 % of control and 107 % of control | dose: 240.0 mg/kg/injection, schedule: Q01DX Z (oral), vehicle: saline 94 % of control | dose: 480.0 mg/kg/injection, schedule: Q01DX Z (oral), vehicle: saline 89 % of control

O=S(=O)(OCC(O)C1OCOC2COCOC21)c1ccccc1 (stereo not drawn)
inactive: [15] 112 % of control | [16] 93 % of control | [17] 97 % of control

CCC(C)OC(c1ccc2c(c1)OCO2)C(C)Br (stereo not drawn)
inactive: dose: 100.0 mg/kg/injection, schedule: Q04DX002 (ip), vehicle: saline with Tween-80 107 % of control | dose: 200.0 mg/kg/injection, schedule: Q04DX002 (ip), vehicle: saline with Tween-80 93 % of control | dose: 400.0 mg/kg/injection, schedule: Q04DX002 (ip), vehicle: saline with Tween-80 96 % of control
